In patent US20050209278A1, “Piperidinyl- and piperazinyl-sulfonylmethyl hydroxamic acids and their use as protease inhibitors” (priority 2002, published 2005):
Where “and” joins values, the source holds several entries; their conditions need not be identical. Equal entries are not always repeated.

Columns and labels:
MMP-14 = molecular target: T1, MMP-14 (Homo sapiens, UniProt P50281); assay: In vitro MMP inhibition, IC50 determination (fluorogenic substrate I); assay type: biochemical; details: value in parentheses; read-out: MMP-14 (IC-50)
T1 construct: The catalytic domain enzyme was expressed in E. coli inclusion bodies, solubilized in urea; made in house
Description: Several hydroxamic acids and salts thereof were analyzed in in vitro assays to determine their ability to inhibit the MMP cleavage of peptide substrates. […] and IC50 constants were calculated from the assayed hydroxamic acid-MMP interactions. Human recombinant MMP-1, MMP-2, MMP-9, MMP-13, and MMP-14 were used in this assay. All enzymes were prepared in Assignee's laboratories following usual laboratory procedures. Protocols for the preparation and use of these enzymes are available in the scientific literature. See, e.g., Enzyme Nomenclature (Academic Press, San Diego, Calif., 1992) (and the citations therein). See also, Freije et al., “Molecular cloning and expression of collagenase-3, a novel human matrix metalloproteinase produced by breast carcinomas,” J Biol. Chem., 269(24), 16766-16773 (1994). The MMP-14 full length cDNA was provided by Dr. Gregory Goldberg of Washington University (St. Louis, Mo.). The catalytic domain enzyme was expressed in E. coli inclusion bodies, solubilized in urea, purified on a preparative […] reverse phase HPLC column, and then refolded in the presence of zinc acetate and purified for use. All MMPs were activated using 4-aminophenylmercuric acetate (“APMA”, Sigma Chemical, St. Louis, Mo.) or trypsin. MMP-9 also was activated using human recombinant MMP-3 (purified in Assignee's laboratory following standard cloning and purification techniques). […] Substrate (I) was purchased from Baychem (Redwood City, Calif.), and substrate II was prepared Assignee's laboratory. Substrate I was used in the IC50 determination assays, while substrate II was used in the Ki determination assays. In the absence of MMP inhibitory activity, either substrate is cleaved at the Gly-Leu peptide bond. […] The stock solutions of the assayed hydroxamic acids (or salts thereof) were prepared in 1% dimethyl sulfoxide (DMSO). […] The experiment controls contained the same amount of Buffer A/DMSO as the assayed sample, but contained no hydroxamic acid (or salt thereof). The assays from which the IC50 determinations were made were performed as follows. […] Louis, Mo.). The assayed hydroxamic acid samples were incubated in MicrofluorTM White Plates (Dynatech, Chantilly, Va.) and analyzed on a Perkin Elmer […] plate reader (Norwalk, Conn.). The excitation wavelength was 328 nm, and the emission wavelength-415 nm. […] As stated in the previous paragraph, samples containing varying concentrations of the same assayed hydroxamic acid were prepared. Inhibition was measured as a reduction in fluorescent intensity as a function of MMP inhibitor concentration. […] All values in Table 2 are given in nM units. The IC50 measurements are in parenthesis.

MMP-1 = molecular target: T2, MMP-1 (Homo sapiens, UniProt P03956); assay: as above; assay type: biochemical; details: value in parentheses; read-out: MMP-1 (IC-50)
T2 construct: made in house; host or cells: MMP-1-transfected HT-1080 cells (spent media)
T2 sequence (P03956 100-469): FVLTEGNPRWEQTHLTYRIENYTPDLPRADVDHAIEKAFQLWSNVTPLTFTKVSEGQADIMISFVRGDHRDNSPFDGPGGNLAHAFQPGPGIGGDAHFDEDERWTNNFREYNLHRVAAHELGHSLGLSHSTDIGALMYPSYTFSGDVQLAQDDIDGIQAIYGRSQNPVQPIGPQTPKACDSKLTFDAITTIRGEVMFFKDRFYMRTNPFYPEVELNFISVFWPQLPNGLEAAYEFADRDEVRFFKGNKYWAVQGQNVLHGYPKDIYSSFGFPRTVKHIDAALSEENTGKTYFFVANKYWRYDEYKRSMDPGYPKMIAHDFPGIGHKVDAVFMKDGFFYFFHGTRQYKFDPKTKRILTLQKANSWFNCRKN
Description: Several hydroxamic acids and salts thereof were analyzed in in vitro assays to determine their ability to inhibit the MMP cleavage of peptide substrates. […] and IC50 constants were calculated from the assayed hydroxamic acid-MMP interactions. Human recombinant MMP-1, MMP-2, MMP-9, MMP-13, and MMP-14 were used in this assay. All enzymes were prepared in Assignee's laboratories following usual laboratory procedures. Protocols for the preparation and use of these enzymes are available in the scientific literature. See, e.g., Enzyme Nomenclature (Academic Press, San Diego, Calif., 1992) (and the citations therein). See also, Freije et al., “Molecular cloning and expression of collagenase-3, a novel human matrix metalloproteinase produced by breast carcinomas,” J Biol. Chem., 269(24), 16766-16773 (1994). The MMP-1 proenzyme was purified from the spent media of MMP-1-transfected HT-1080 cells provided by Dr. Harold Welgus of Washington University (St. Louis, Mo.). The protein was purified on a zinc chelating column. All MMPs were activated using 4-aminophenylmercuric acetate (“APMA”, Sigma Chemical, St. Louis, Mo.) or trypsin. MMP-9 also was activated using human recombinant MMP-3 (purified in Assignee's laboratory following standard cloning and purification techniques). […] Substrate (I) was purchased from Baychem (Redwood City, Calif.), and substrate II was prepared Assignee's laboratory. Substrate I was used in the IC50 determination assays, while substrate II was used in the Ki determination assays. In the absence of MMP inhibitory activity, either substrate is cleaved at the Gly-Leu peptide bond. […] The stock solutions of the assayed hydroxamic acids (or salts thereof) were prepared in 1% dimethyl sulfoxide (DMSO). […] The experiment controls contained the same amount of Buffer A/DMSO as the assayed sample, but contained no hydroxamic acid (or salt thereof). The assays from which the IC50 determinations were made were performed as follows. […] Louis, Mo.). The assayed hydroxamic acid samples were incubated in MicrofluorTM White Plates (Dynatech, Chantilly, Va.) and analyzed on a Perkin Elmer […] plate reader (Norwalk, Conn.). The excitation wavelength was 328 nm, and the emission wavelength-415 nm. […] As stated in the previous paragraph, samples containing varying concentrations of the same assayed hydroxamic acid were prepared. Inhibition was measured as a reduction in fluorescent intensity as a function of MMP inhibitor concentration. […] All values in Table 2 are given in nM units. The IC50 measurements are in parenthesis.

| SMILES | IC50 (MMP-14) | IC50 (MMP-1) [µM] |
| --- | --- | --- |
| CCCCOc1ccc(N2CCN(S(=O)(=O)C3(C(=O)NO)CCN(c4ccc(C)cc4)CC3)CC2)cc1 [Example 295] | > 10 µM | > 10 |
| CCCCOc1ccc(N2CCN(S(=O)(=O)C3(C(=O)NO)CCN(CC4CC4)CC3)CC2)cc1 [Example 298] | > 10 µM | > 10 |
| C#CCN1CCC(C(=O)NO)(S(=O)(=O)N2CCN(c3ccc(OCCCC)cc3)CC2)CC1 [Example 303] | 2.24 µM | > 10 |

The next lines start with the values.

| IC50 (MMP-14) | IC50 (MMP-1) [µM] | SMILES |
| --- | --- | --- |
| > 10 µM and 6.47 µM | > 10 | COCCOc1ccc(N2CCN(S(=O)(=O)C3(C(=O)NO)CCN(C4CC4)CC3)CC2)cc1F [Example 297] |
| 5.63 µM | > 10 | CCCCOc1ccc(N2CCN(S(=O)(=O)C3(C(=O)NO)CCN(C4CC4)CC3)CC2)cc1 [Example 301] |
| > 10 µM | > 10 | CCCCOc1ccc(N2CCN(S(=O)(=O)C3(C(=O)NO)CCN(c4ccc(C)cc4)CC3)CC2)cc1F [Example 296] |
